A short description of this series: gradient 5% acetonitrile 3 min, to 50% in 2 min, to 85% in 15 min, held 3 min, 100 µL/min. As to conditions: column: Zorbax Extend-C18 2.1 x 50 mm; eluents: water / acetonitrile, 0.1% formic acid. The procedure, abridged:
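Standards, all pure, were combined into mixtures of ~100 molecules and run at 100 μL/min on a Zorbax Extend-C18 column (2.1 × 50 mm, 1.8 μm) with water and acetonitrile, each containing 0.1% formic acid. A coupled quadrupole time-of-flight mass spectrometer operated in positive and negative ionization mode. Retention time values come from computationally picked adduct peaks, each inspected manually.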
`CC(C)CCNc1nc(-c2ccc(Cl)cc2)nc2ccccc12` had an RP-LC retention time of 932 s.

The compound `CSc1ccc(-c2nc3c(C)cccn3c2NC2CCCCC2)cc1` had an RP-LC retention time of 868 s.

For `CCOc1ccc(N2C(=O)C3N=NN(Cc4nc(-c5ccc(C)c(C)c5)no4)C3C2=O)cc1` (centres undefined), the RP-LC retention time stood at 1110 s.

Regarding `CC(C(=O)NCCN1CCCCCC1)n1c(=O)c(C(F)(F)F)nc2ccccc21` (centres undefined), the RP-LC retention time stood at 713 s.

`CN1C(=O)CCC2(CNC(=O)c3cnccn3)CCC=C12` (centres undefined) yielded an RP-LC retention time of 644 s.

As for `COc1ccc(NC(=O)Cn2cc(-c3ccccc3C)c(N3CCOCC3)n2)c(OC)c1`, the RP-LC retention time came out at 959 s.

As to `O=C(CCc1nnn2c1CN(C(=O)c1ccc(F)cc1)CC2)NC1CC1`, the RP-LC retention time was 617 s.

`CC1=C(c2ccc(C)cc2)S(=O)(=O)N=C1N1CCCN(C(=O)NCc2ccco2)CC1` yielded an RP-LC retention time of 803 s.

Regarding `COc1ccc(S(=O)(=O)N2CCCn3ccnc3C2c2cnn(C)c2)cc1Cl` (centres undefined), the RP-LC retention time was 618 s.

`C#Cc1cccc(Nc2ncnc3cc(OCCOC)c(OCCO)cc23)c1` yielded an RP-LC retention time of 663 s.

`COc1cccc(CNC(=O)Cn2c(N(C)Cc3ccccc3)nc(C)cc2=O)c1OC` yielded an RP-LC retention time of 660 s.

For `Cc1ccc(S(=O)(=O)N2CCC(C)(C(=O)NCc3ccccc3C)CC2)cc1C`, the RP-LC retention time came out at 1030 s.

On to `COc1ccc(OC)c(-c2[nH]ncc2CN2CC(F)(F)C[C@H]2CN2CCCCC2)c1`, for which the RP-LC retention time is 632 s.

With `O=C(CCC1CCN(c2cc(NC3CC3)ncn2)CC1)NCc1cc(F)cc(F)c1`, the RP-LC retention time amounted to 673 s.

Regarding `O=C(COc1ccc(Cl)cc1)Nc1ccc(-c2nc(-c3ccc(F)cc3)no2)cc1`, the RP-LC retention time amounted to 1260 s.

For `CCc1noc(-c2cnc3nc(C)ccc3c2Nc2cccc(OC)c2)n1`, the RP-LC retention time came to 778 s.

With `Cc1ccc(-c2nc(-c3ccc4c(c3)oc(=O)n4C(C)C)no2)cc1C`, the RP-LC retention time came to 1130 s.

The compound `Cc1ccc(-c2noc(CN3C(=O)COc4ccc(Cl)cc43)n2)cc1` gave an RP-LC retention time of 1150 s.

Regarding `COc1ccc(Cl)cc1NC(=O)N1CCCC(C)(C(=O)NCc2ccccc2)C1` (centres undefined), the RP-LC retention time worked out at 998 s.

With `CN(C)C(CNC(=O)c1cc(-c2cccs2)on1)c1ccccc1` (centres undefined), the RP-LC retention time turned out to be 664 s.

In turn, `CCc1cccc(NS(=O)(=O)c2cc3n(c2)CCN(C)C3=O)c1` registered an RP-LC retention time of 722 s.

Turning to `O=C(NCCCc1ccccc1)c1nnc(-c2ccc(S(=O)(=O)N3CCOCC3)cc2)o1`, the RP-LC retention time came out at 911 s.

For the compound `O=S(=O)(c1ccc(Cl)cc1)N1CCC(c2nc(-c3cccc(-c4ccn[nH]4)c3)no2)CC1`, the RP-LC retention time came to 994 s.

In the case of `Cc1cn(C)c(CC(=O)NCCCN2CCCC(C)C2)c1C(=O)O` (centres undefined), the RP-LC retention time amounted to 586 s.

Compound `COCc1nc2cccnc2n1C1CCN(C(=O)Nc2ccccc2)CC1` had an RP-LC retention time of 680 s.

With `COc1ccc2c(c1)C1(CCN(C(=O)Cc3ccccc3Cl)C1)C(=O)N2C` (centres undefined), the RP-LC retention time was found to be 848 s.

`CCN(c1cccc(C)c1)S(=O)(=O)c1cc(-c2[nH]ncc2C(=O)N(C)C)oc1C` gave an RP-LC retention time of 792 s.

For the compound `CC1CCCN(CC2CCN(S(=O)(=O)c3ccc(C#N)cc3)CC2)C1` (centres undefined), the RP-LC retention time worked out at 644 s.

Consider `COc1ccc(Cl)cc1NC(=O)Nc1ccc2c(c1)C(=O)NCC2`, for which the RP-LC retention time is 748 s.

Compound `CCC(C)NC(=O)C1CCCN(c2ccc(-c3ccc(C)c(C)c3)nn2)C1` (centres undefined) had an RP-LC retention time of 716 s.

In the case of `O=C(CCc1c(-c2ccc(Br)cc2)nc2ccccn12)NC1CCCC1`, the RP-LC retention time was 667 s.

Regarding `OCC1CN(c2ncccn2)CC12CCN(Cc1cc(Cl)ccc1F)CC2` (centres undefined), the RP-LC retention time stood at 577 s.

In turn, `O=S(=O)(NCCc1ccsc1)c1cccnc1` returned an RP-LC retention time of 686 s.

As to `CC1CCCC(C)N1CCCNC(=O)C1CCCN(c2ncnc3c2nc2n3CCCCC2)C1` (centres undefined), the RP-LC retention time amounted to 592 s.

Compound `Cc1ccc(-n2nc3c(N4CCCC(C(=O)NCCN5CCOCC5)C4)nnc(C)c3c2C)cc1` (centres undefined) came in with an RP-LC retention time of 589 s.

`Cc1cc(C)n2nc(SCC(=O)Nc3ccccc3)nc2n1` gave an RP-LC retention time of 700 s.

In turn, `CCN1CCCn2cc(S(=O)(=O)Nc3ccc(C)cc3)cc2C1=O` came in with an RP-LC retention time of 1130 s.

As to `CC(C)c1ccc(S(=O)(=O)N2CCC(n3c(-c4ccoc4)nc4cccnc43)C2)cc1` (centres undefined), the RP-LC retention time came out at 1010 s.

In turn, `O=C(O)c1ccc2c(c1Sc1ccccc1)C(=O)c1ccccc1C2=O` registered an RP-LC retention time of 887 s.

As for `CCn1c(=O)sc2cc(S(=O)(=O)N3CCC(C(=O)N4CCC5(CC4)OCCO5)CC3)ccc21`, the RP-LC retention time came out at 781 s.

Turning to `CCN(Cc1cn(C)nc1C)C(=O)c1cc2c(=O)n(CC(C)C)c3ccccc3n2n1`, the RP-LC retention time stood at 864 s.

The compound `CCCCN(CC)c1nc2cc(C(=O)OC)ccc2c(=O)n1-c1ccccc1` displayed an RP-LC retention time of 1250 s.

`Cc1ccc(C2=NC3(CCN(C(=O)c4ccc5c(c4)OCO5)CC3)ON2)cc1`: the RP-LC retention time came out at 939 s.

`Cn1c(N2CCN(C(=O)c3cccc(Br)c3)CC2)cc(=O)n(C)c1=O`: the RP-LC retention time came out at 672 s.

For the compound `CCOCCCNC(=O)c1ccc(-c2ccc3c(c2)CCN3C(C)=O)cc1`, the RP-LC retention time worked out at 598 s.

Take `CCOC(=O)c1ccc2nc(C(F)(F)F)nc(NCCCc3ccccc3)c2c1`: the RP-LC retention time is 1300 s.

In turn, `O=C(CCS(=O)(=O)c1ccccc1)NCCOc1ccc(-c2ccc(F)cc2)nn1` came in with an RP-LC retention time of 715 s.

`CCn1ncc(Cl)c1C(=O)N1CCCC1c1ccc(F)cc1` (centres undefined) registered an RP-LC retention time of 912 s.

In turn, `CCc1cccc(N2C(=O)CN(S(=O)(=O)CC)CC2(C)C(=O)NCc2ccc(F)cc2)c1` (centres undefined) registered an RP-LC retention time of 945 s.

The compound `COc1ccc(OC)c(-c2[nH]ncc2CN2CC(F)(F)C[C@H]2CN2CCCCCC2)c1` registered an RP-LC retention time of 578 s.

For the compound `COc1ccc(Cl)cc1S(=O)(=O)N1CCC(C(=O)NCc2cccnc2)CC1`, the RP-LC retention time worked out at 625 s.

The compound `N#Cc1ccc2c(c1)N(CCCN1CCC(O)CC1)c1ccccc1S2` displayed an RP-LC retention time of 743 s.

`CCn1cc(-c2ccc(C)cc2)cc1C(=O)NC1CC1` had an RP-LC retention time of 991 s.

In turn, `CCn1c(CC2C(=O)Nc3ccc(Br)cc32)nc2ccccc2c1=O` (centres undefined) came in with an RP-LC retention time of 825 s.

The compound `CCn1cc(-c2ccc(Cl)cc2)cc1C(=O)N1CCC2(CC1)OCCO2` registered an RP-LC retention time of 1040 s.

Compound `CCn1nc(-c2ccc(C)c(S(=O)(=O)N3CCC(C(N)=O)CC3)c2)c2c(c1=O)CCCC2` showed an RP-LC retention time of 718 s.

Compound `O=C(NCCc1nc2cccnc2n1-c1ccccc1)c1ccoc1` showed an RP-LC retention time of 646 s.

In turn, `Cc1ccc(-c2ccc(N3CCCC(C(=O)NCc4ccc(Br)cc4)C3)nn2)cc1` (centres undefined) returned an RP-LC retention time of 806 s.

In turn, `CC(C)Cn1c(-c2cccc(C(=O)NC(C)C)c2)nc2cccnc21` came in with an RP-LC retention time of 763 s.

Turning to `Cc1noc(CN2CCN(C3CCN(Cc4cc(F)ccc4F)C3)C2=O)n1` (centres undefined), the RP-LC retention time was 576 s.

Regarding `O=C(C1CCN(S(=O)(=O)N2CCOCC2)CC1)N1CCC(c2nc(C3CCOCC3)no2)CC1`, the RP-LC retention time was 674 s.

As to `NC(=O)c1c(NC(=O)C2CCCN(C(=O)c3cc(F)cc(F)c3)C2)sc2c1CCCC2` (centres undefined), the RP-LC retention time stood at 1230 s.

`COc1ccc(CNc2nc3ccncc3n(C(C)C)c2=O)c(OC)c1` yielded an RP-LC retention time of 681 s.

`Cc1ccccc1NC(=O)c1nnc(CSCC(=O)N2CCN(c3ccccn3)CC2)s1` came in with an RP-LC retention time of 637 s.

As to `Cc1ccc(CNC(=O)c2ccc3c(c2)nc2n3CCN(C3CCCCC3)C2=O)cc1`, the RP-LC retention time came to 839 s.

On to `Cc1cnc(C2CN(C(=O)C3(C)CCCCC3)C2)n1Cc1ccncc1`, for which the RP-LC retention time was found to be 566 s.

Regarding `COc1ccc(Cn2nnc3cc(C(=O)NCc4ccco4)ccc32)cc1`, the RP-LC retention time was 818 s.

Turning to `CCOc1ccc(C(=O)N2CCN(c3cnn4c(C5CC5)nnc4c3)CC2)cc1`, the RP-LC retention time is 659 s.

As to `O=C(CCC(=O)c1ccc(F)cc1)Nc1cnn(-c2ncc(N3CCCC3)cn2)c1`, the RP-LC retention time was 799 s.

Compound `Cc1ccc(NC(=O)N2CCc3nc(-c4ccc(F)cc4)ncc3C2)c(Cl)c1` gave an RP-LC retention time of 1080 s.

In turn, `Cc1cc(-c2c(C)sc(C)c2S(=O)(=O)NCc2ccc(Cl)cc2)n[nH]1` gave an RP-LC retention time of 1090 s.

Take `O=S(=O)(Cc1ccccc1)N1CCC(OC2CCN(Cc3cccnc3)CC2)CC1`: the RP-LC retention time came to 615 s.

Take `COc1ccccc1-c1csc(NC(=O)c2sc(COc3ccc(Cl)c(C)c3)nc2C)n1`: the RP-LC retention time came to 1360 s.

Regarding `Cc1ccccc1S(=O)(=O)N1CCC2(CC1)NCCN=C2NCc1cc(F)cc(F)c1`, the RP-LC retention time turned out to be 730 s.

`CC(=O)N1CCC(C(=O)Nc2nccs2)CC1`: the RP-LC retention time worked out at 584 s.

In turn, `CC(=O)NC(C)c1nc(-c2ccc(C(C)(C)C)cc2)no1` (centres undefined) came in with an RP-LC retention time of 901 s.

`O=C(COc1ncccn1)Nc1ccc(F)c(F)c1` returned an RP-LC retention time of 665 s.

In turn, `CCCNC(=O)c1c(OCC2CC2)cc(=O)n2c1CCCCC2` returned an RP-LC retention time of 683 s.

As to `O=C(NCCCN1CCCC1)c1ccc(-c2ccc(N3CCSCC3)nc2)cc1`, the RP-LC retention time worked out at 574 s.

The values above are taken from the METLIN SMRT retention time set (Domingo-Almenara et al. 2019).
